This note sets out measurements from ChEMBL document CHEMBL1121376, “Antihypertensive (2-aminoethyl)thiourea derivatives. 2” (1980).

SMILES strings stand for the structures. Active and inactive are the calls of the source. No cut-off for these calls is given here.

Test [1] deals with Rattus norvegicus. Put plainly: Evaluation of decrease in heart rate (antihypertensive activity) in spontaneously hypertensive rats after 3-6h 0f peroral dose of 100 mg /kg. It is filed as functional.
Test [2] concerns Rattus norvegicus. The test can be described thus: Evaluation of antihypertensive activity in DOCA/salt hypertensive rats at peroral dose of 10 mg/kg; no effect on HR; Inactive. Also noted: dose 10 mg/kg. It is filed as functional, organism-based.
Test [3] deals with Rattus norvegicus. The test can be described thus: Evaluation of antihypertensive activity in DOCA/salt hypertensive rats at peroral dose of 10,30,100 mg /kg; value ranges from 12-20%. It is filed as functional.
In test [4] the test system is Rattus norvegicus. The test can be described thus: Evaluation of antihypertensive activity in spontaneously hypertensive rats at peroral dose of 10, 30,100 mg /kg. It is filed as functional.
The subject of test [5] is Canis familiaris. Put plainly: Evaluation of antihypertensive activity renally hypertensive dog at dose 10,30,100mg/kg(po); Inactive. It is filed as functional, organism-based. As to conditions: Canis lupus familiaris.
Test [6] has as its system Canis familiaris. Put plainly: Evaluation of antihypertensive activity renally hypertensive dog at dose 10 mg/kg. It is filed as functional, Canis lupus familiaris.

On to `NCC/N=C(\S)Nc1c(Cl)cccc1Cl`, for which the “Reduction in heart rate” value in test [1] was determined as 12.7%. The “Reduction in arterial blood pressure” value in test [2] and in test [5] was “inactive” in each case. Further, in test [3], the “Decrease in blood pressure” value stood at 12%. The “Reduction in blood pressure” value in test [4] is given as 12.7%. In test [6], the “Reduction in arterial blood pressure” value is reported as 7%.
